Data as given in ChEMBL document CHEMBL2086352, “Thiazoline peptides and a tris-phenethyl urea from Didemnum molle with anti-HIV activity” (J Nat Prod, 2012).
Active and inactive are the calls of the source. The calls are words filed in the database; no cut-off is given here. Starred links: 1 amine or outer side, 2 acyl side, 3 side chain; linkers in the order of their positions; H or OH if unused. Non-standard residues stand in square brackets, D forms with d. Residues, ends and D or L forms follow the SMILES beside them. *: point of attachment. X1 = O=C([C@H]1CSC([C@@H](Cc2ccccc2)N[*:1])=N1)[*:2]; Allyl(1,1-Me2) = C=CC(C)(C)*

Tests used:
[1] = system: Human immunodeficiency virus; assay: Antiviral activity against HIV infected in 1A2 cells assessed as cytoprotective activity at 78 uM after 96 hrs by MTT assay; format: functional, organism-based
[2] = molecular target: Human immunodeficiency virus type 1 integrase (Human immunodeficiency virus 1) (UniProt Q7ZJM1); assay: Inhibition of HIV-1 integrase at 100 ug/ml by colorimetry
Human immunodeficiency virus type 1 integrase (Human immunodeficiency virus 1), sequence (Q7ZJM1 as listed by the source): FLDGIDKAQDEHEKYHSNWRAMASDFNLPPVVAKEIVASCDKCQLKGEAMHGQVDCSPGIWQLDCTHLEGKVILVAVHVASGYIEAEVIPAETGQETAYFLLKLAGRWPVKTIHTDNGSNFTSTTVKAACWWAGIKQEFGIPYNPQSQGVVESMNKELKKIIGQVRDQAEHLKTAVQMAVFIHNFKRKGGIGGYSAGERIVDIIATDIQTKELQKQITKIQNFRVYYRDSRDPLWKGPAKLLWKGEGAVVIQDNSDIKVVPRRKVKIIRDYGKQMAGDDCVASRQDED

[3] = system: Human immunodeficiency virus; assay: Antiviral activity against HIV infected in 1A2 cells assessed as cytoprotective activity after 96 hrs by MTT assay; format: functional, organism-based; conditions: Human immunodeficiency virus 1, 1A2, 96 h
[4] = molecular target: Human immunodeficiency virus type 1 integrase (Human immunodeficiency virus 1, UniProt Q7ZJM1); assay: Inhibition of HIV-1 integrase by colorimetry
Human immunodeficiency virus type 1 integrase, sequence (Q7ZJM1 whole entry): as the sequence (Q7ZJM1 as listed by the source) above

Compound | Activity [1] | inhibition [2] | IC50 [3] [µM] | IC50 [4] [µM]
C=CC(C)(C)O[C@H](C)[C@@H]1NC(=O)[C@H]2CSC(=N2)[C@@H](Cc2ccccc2)NC(=O)[C@@H]2CCCN2C(=O)[C@H](CO)NC(=O)[C@H](CC(C)C)NC1=O (cyclo(LSP[X1]T(Allyl(1,1-Me2)))) | inactive | inactive |  | 
O=C(NCCc1ccccc1)NCCc1ccccc1C(=O)NCCc1ccccc1 [MOLLEUREA A] |  | inactive | 60 | 
[N-]=[N+]=[N-] [SODIUM AZIDE] |  |  |  | 46000
CC[C@H](C)[C@@H]1NC(=O)[C@H]2CSC(=N2)[C@@H](Cc2ccccc2)NC(=O)[C@@H]2CCCN2C(=O)[C@@H]2CCCN2C(=O)[C@H](C(C)C)NC1=O [MOLLAMIDE F] (cyclo(IVPP[X1])) |  |  | 78 | 39
